In patent US10597388B2, “Pyridazinone herbicides” (FMC CORPORATION, priority 2014, dated 2020):

Columns and labels:
Assay type in all cases: in vivo
[1] = tested on: pigweed (Amaranthus retroflexus); experiment: Test C greenhouse herbicide test, pre- and postemergence
Summary of the method: (§1)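 Each species was treated both before emergence, in a loam–sand soil mix, and after emergence, as 1- to 4-leaf seedlings in peat-based potting medium. Plants stayed in the greenhouse 13 to 15 d, then were scored from 0 (no effect) to 100 (complete control) relative to controls.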

[2] = tested on: ryegrass, Italian (Italian ryegrass, Lolium multiflorum); experiment: as above
Summary of the method: as §1

[3] = tested on: velvetleaf (Abutilon theophrasti); experiment: as above
Summary of the method: as §1

[4] = tested on: blackgrass (Alopecurus myosuroides); experiment: as above
Summary of the method: as §1

[5] = tested on: morningglory (Ipomoea coccinea); experiment: as above
Summary of the method: as §1

corn (Zea mays) = experiment: as above
Summary of the method: as §1

[6] = tested on: pigweed (Amaranthus retroflexus); experiment: Test A greenhouse herbicide test, pre- and postemergence
Summary of the method: (§2)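 Seeds sown in loam–sand blend got a preemergence directed soil spray of compound in non-phytotoxic solvent with surfactant. Postemergence treatment was given at 2–10 cm, one- to two-leaf stage. After ~10 d in greenhouse, injury was rated visually vs untreated controls, 0 (no effect) to 100 (complete control).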

[7] = tested on: foxtail, giant (giant foxtail, Setaria faberii); experiment: as above
Summary of the method: as §2

[8] = tested on: wheat (Triticum aestivum); experiment: as above; conditions: Postemergence
Summary of the method: as §2

kochia (Kochia scoparia) = experiment: as above
Summary of the method: as §2

[9] = tested on: ragweed (common ragweed, Ambrosia elatior); experiment: as above
Summary of the method: as §2

[10] = Postemergence, 31 g ai/ha, scale 0 to 100 (0 no effect, 100 complete control)
[11] = Postemergence, 62 g ai/ha, 0 to 100 scale (0 no effect, 100 complete control)
[12] = Postemergence, 250 g ai/ha, scale 0 to 100, 0 is no effect, 100 is complete control
[13] = postemergence, 125 g ai/ha, scale 0 to 100, 0 no effect, 100 complete control
[14] = Postemergence, 125 g ai/ha, 0 to 100 scale, 0 no effect, 100 complete control
[15] = Postemergence, 500 g ai/ha, visual rating after approx. 10 d, 0 to 100 scale (0 no effect, 100 complete control)
[16] = Preemergence, 125 g ai/ha, visual injury rating, 0 to 100 scale (0 no effect, 100 complete control), approx. 10 d
[17] = Preemergence, 500 g ai/ha, 0 to 100 scale where 0 is no effect and 100 is complete control

`Cc1nn(C)c(=O)c(-c2c([N+](=O)[O-])ccc3ccccc23)c1O` [Compound 165] was tested, and the “Plant response rating, Pigweed” value [1, 10] was 75, the “Pigweed plant response rating” value [1, 11] was 70 and the “Plant response rating, Pigweed” value [1, 12] was 85. For the same compound, the “Pigweed plant response rating” value [1, 13] was 75, the “Plant response rating, Ryegrass, Italian” value [2, 10] was 40 and the “Ryegrass, Italian plant response rating” value [2, 11] was 50. The “Plant response rating, Ryegrass, Italian” value [2, 12] was 70, the “Ryegrass, Italian plant response rating” value [2, 13] was 55 and the “Plant response rating, Velvetleaf” value [3, 10] was 20. The “Velvetleaf plant response rating” value [3, 11] was 25, the “Plant response rating, Velvetleaf” value [3, 12] was 50 and the “Velvetleaf plant response rating” value [3, 13] was 20. The “Plant response rating, Blackgrass” value [4, 10] was 5, the “Blackgrass plant response rating” value [4, 11] was 15 and the “Plant response rating, Blackgrass” value [4, 12] was 25. For the same compound, the “Blackgrass plant response rating” value [4, 13] was 20, the “Plant response rating, Morningglory” value [5, 10] was 75 and the “Morningglory plant response rating” value [5, 11] was 70. For the same compound, the “Plant response rating, Morningglory” value [5, 12] was 95, the “Morningglory plant response rating” value [5, 13] was 85 and the “Plant response rating, Corn” value (corn (Zea mays); [10]) was 0. For the same compound, the “Corn plant response rating” value (corn (Zea mays); [11]) was 0, the “Plant response rating, Corn” value (corn (Zea mays); [12]) was 5 and the “Corn plant response rating” value (corn (Zea mays); [13]) was 0. For the same compound, the “Plant response rating, Pigweed” value [6, 14] was 80, the “Plant response rating, Pigweed” value [6, 15] was 80 and the “Plant response rating, Pigweed” value [6, 16] was 100. For the same compound, the “Plant response rating, Pigweed” value [6, 17] was 90, the “Plant response rating, Foxtail, Giant” value [7, 14] was 20 and the “Plant response rating, Foxtail, Giant” value [7, 15] was 50. For the same compound, the “Plant response rating, Foxtail, Giant” value [7, 16] was 10, the “Plant response rating, Foxtail, Giant” value [7, 17] was 40 and the “Plant response rating, Wheat” value ([8]; 125 g ai/ha, 0 to 100 scale, 0 no effect, 100 complete control) was 0. The “Plant response rating, Wheat” value ([8]; 500 g ai/ha, visual rating after approx. 10 d, 0 to 100 scale (0 no effect, 100 complete control)) was 0, the “Plant response rating, Kochia” value (kochia (Kochia scoparia); [14]) was 60 and the “Plant response rating, Kochia” value (kochia (Kochia scoparia); [15]) was 90. The “Plant response rating, Kochia” value (kochia (Kochia scoparia); [16]) was 60, the “Plant response rating, Kochia” value (kochia (Kochia scoparia); [17]) was 100 and the “Plant response rating, Ragweed” value [9, 14] was 90. For the same compound, the “Plant response rating, Ragweed” value [9, 15] was 90, the “Plant response rating, Ragweed” value [9, 16] was 50 and the “Plant response rating, Ragweed” value [9, 17] was 90.
